Data from publication PMC2106221 (The Journal of Cell Biology, 1963).
Read-outs that look alike come from different tables or passages of the source.

Legend:
[1] = biological target: T1, bovine trypsin (crystalline) (Bos taurus, UniProt P00760); assay type: biochemical; conditions: for Percentage inhibition 5 min.: DL-BANA 0.60 mM, enzyme 10 μg/ml
T1 sequence (P00760 24-246): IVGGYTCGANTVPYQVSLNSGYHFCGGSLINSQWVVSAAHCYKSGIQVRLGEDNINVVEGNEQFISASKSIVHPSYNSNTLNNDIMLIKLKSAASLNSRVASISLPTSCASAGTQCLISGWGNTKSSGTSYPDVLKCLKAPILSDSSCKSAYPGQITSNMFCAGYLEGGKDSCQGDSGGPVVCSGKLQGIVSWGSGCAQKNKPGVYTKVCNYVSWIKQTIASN

[2] = test system: trypsin-like amidase and esterase activity in human mast cells (mast cell enzyme(s)); assay type: biochemical; conditions: for time required for the appearance of visible mast cells, mean: double-blind; for time to observable mast cells at theoretical Vm: from the Lineweaver-Burk plot; for time for the demonstration of mast cells: optimal substrate concentration
[3] = test system: canine mast cells; assay: histochemical reaction in canine skin sections; assay type: biochemical, dog; conditions: incubation period of 1 hour
[4] = test system: chymotrypsin; conditions: pH 7.2 ref 2; cited from earlier work
[5] = spontaneous hydrolysis of ester substrate in water/buffer; assay type: physicochemical
[6] = biological target: T1, bovine trypsin (crystalline); conditions: trypsin 4 X pancreatin (Nutritional Biochemical Corporation) ref 1; cited from earlier work
[7] = diazonium coupling velocity in test tube, spectrophotometric half-reaction times; assay type: physicochemical
[8] = Lineweaver-Burk plot, human mast cells

Cl.N=C(N)NCCCC(NC(=O)c1ccccc1)C(=O)Nc1ccc2ccccc2c1 (racemic) [DL-BANA, benzoyl-DL-arginine β-naphthylamide hydrochloride]
Vm ([1]; in the absence of Garnet GBC): 50 mμM β-naphthylamine liberated | Vm ([1]; in the presence of Garnet GBC): 30 mμM β-naphthylamine liberated | time required for the appearance of visible mast cells, mean ([2]; Experiment 1, DL-BANA 0.12 mM): 7.0 min | time required for the appearance of visible mast cells, mean ([2]; Experiment 2, DL-BANA 0.050 mM): 15.9 min | time to observable mast cells at theoretical Vm [2]: 2 min | time for the demonstration of mast cells ([2]; human mast cells): 5 to 6 min

Cl.NCCCCC(NC(=O)c1ccccc1)C(=O)Nc1ccc2ccccc2c1 (racemic) [DL-BLyNA, benzoyl-DL-lysine β-naphthylamide hydrochloride]
time to observable mast cells at theoretical Vm [2]: 2 min | time for the demonstration of mast cells ([2]; human mast cells): 5 to 6 min | reaction in canine mast cells [3]: No reaction

NC(=O)[C@H](CCCN=C(N)N)NC(=O)c1ccccc1 [BAA, benzoyl-L-arginine amide, reference compound]
nature of inhibition of DL-BANA hydrolysis [2, 8]: competitive | nature of inhibition of DL-BLyNA hydrolysis ([2]; human mast cells): competitive

COC(=O)[C@H](CCCNC(=N)N)NC(=O)c1ccccc1 [BAME, benzoyl-L-arginine methyl ester, reference compound]
nature of inhibition of DL-BANA hydrolysis [2, 8]: competitive | nature of inhibition of EACA-AS hydrolysis [2, 8]: competitive inhibitor

Cl.N=C(N)NCCC[C@@H](NC(=O)c1ccccc1)C(=O)Nc1ccc2ccccc2c1 [D-BANA, benzoyl-D-arginine β-naphthylamide hydrochloride]
nature of inhibition of tryptic hydrolysis of L-BANA [1]: competitive inhibitor | substrate for trypsin [1]: not a substrate for trypsin | nature of inhibition of DL-BANA hydrolysis [2, 8]: competitive inhibitor | hydrolysis in the mast cells ([2]; tested as substrate): not hydrolyzed

NCCCCCC(=O)Oc1cc2ccccc2cc1C(=O)Nc1ccccc1 [EACA-AS, Naphthol AS ε-aminocaproate]
substrate concentration at approximately 50 per cent of the reaction velocity ([1]; trypsin, velocity calculated from the Lineweaver-Burk plot): ~20 /ZM | hydrolysis by chymotrypsin relative to that of trypsin [4]: about 10 per cent | substrate concentration at approximately half-maximal velocity ([2]; human mast cells, Fig. 7): ~7 #M | spontaneous hydrolysis in water ([5]; pH 5-6): insignificant | mean substrate concentration during spontaneous hydrolysis ([5]; pH 7.2, during 20 minutes): 92 per cent of the original concentration | mean substrate concentration during spontaneous hydrolysis ([5]; pH 7.2, during 30 minutes): 90 per cent of the original concentration | mean substrate concentration during spontaneous hydrolysis ([5]; pH 7.2, during the first 10 minutes): 95 per cent of the original concentration

Cc1ccccc1NC(=O)c1cc2ccccc2cc1OC(=O)CCCCCN [EACA-AS-D, Naphthol AS-D ε-aminocaproate]
results as substrate compared with EACA-AS ([2]; both biochemical and histochemical studies): essentially the same results as EACA-AS

Cc1ccccc1N=Nc1ccc([N+]#N)c(C)c1 [Garnet GBC]
Percentage inhibition 5 min. ([1]; Garnet GBC 0.05 mg/ml): 4.7% | Percentage inhibition 5 min. ([1]; Garnet GBC 0.10 mg/ml): 13.2% | Percentage inhibition 5 min. ([1]; Garnet GBC 0.20 mg/ml): 16.5% | Percentage inhibition 5 min. ([1]; Garnet GBC 0.40 mg/ml): 20.1% | Percentage inhibition 5 min. ([1]; Garnet GBC 2.00 mg/ml): 35.0% | nature of inhibition of tryptic DL-BANA hydrolysis ([1]; Lineweaver-Burk plot): uncompetitive inhibition | inhibition of Vm of DL-BANA hydrolysis by the diazonium salt ([1]; from Lineweaver-Burk plot, Fig. 6): about 40 per cent | change of hydrolysis rate after preincubation with diazonium salt ([1]; preincubation of 60 minutes prior to the addition of substrate): no more than 15 per cent | inhibition of DL-BANA hydrolysis [6]: Up to 75 per cent

Nc1ccc2ccccc2c1 [β-naphthylamine]
Half-reaction time of coupling with Garnet GBC ([7]; Garnet GBC 0.70 mg/ml, presence of Tween 20): 7 s | Half-reaction time of coupling with Garnet GBC ([7]; Garnet GBC 0.70 mg/ml, presence of albumin): 48 s | Half-reaction time of coupling with Garnet GBC ([7]; Garnet GBC 0.70 mg/ml, water, pH 7.2): 93 s | Half-reaction time of coupling with Garnet GBC ([7]; Garnet GBC 1.40 mg/ml, presence of Tween 20): 4 s | Half-reaction time of coupling with Garnet GBC ([7]; Garnet GBC 1.40 mg/ml, presence of albumin): 23 s | Half-reaction time of coupling with Garnet GBC ([7]; Garnet GBC 1.40 mg/ml, water, pH 7.2): 42 s
